Laboratory results from patent US10577378B2, “EIF4A-inhibiting compounds and methods related thereto” (eFFECTOR Therapeutics, Inc., priority 2015, dated 2020).

Each molecule was assayed on MDA-MB-231 human breast cancer cells (assay: Cell proliferation assay (CellTiter-Glo, 72 hours treatment)). Conditions: Homo sapiens, MDA-MB-231, 72 h, read-out: MDA-MB-231 cell proliferation assay (IC50).
Type: cell-based
Method: Human tumor cell lines were cultured in the appropriate media (DMEM and RPMI) supplemented with penicillin G (100 U/ml), streptomycin (100 μg/ml), 10% FBS in a humidified atmosphere of 5% CO2 maintained at 37° C. Exponentially growing cells were seeded at 2,500 cells/well in 96 well plates prior to drug treatment. The following day, cells were treated with either DMSO (vehicle control) or eIF4A inhibitors at the appropriate dose for 72 hours at 37° C. Following compound treatment, cell proliferation was assessed by CellTiter-Glo assay (Promega, Madison Wis.) according to the manufacturer's protocol. Dose-response curves were fitted by non-linear regression (sigmoidal dose response model) using KaleidaGraph (Synergy Software, Reading Pa.) and IC50 values were calculated.
To this end, IC50 values of less than 100 nM are labelled as “+++”, from 100 nM to 1000 nM are labelled as “++”, and greater than 1000 nM are labelled as “+” (NA means “not available”).

| SMILES | IC50 [nM] |
| --- | --- |
| COc1cncc2c1[C@]1(O)C(=O)C(C(=O)N(C)C)[C@@H](c3ccccc3)[C@]1(c1ccc(Br)cc1)O2 (mixture of isomers) [192F, Rac-(4bR,7S,7aR)-7a-(4-bromophenyl)-4b-hydroxy-4-methoxy-N,N-dimethyl-5-oxo-7-phenyl-4b,6,7,7a-tetrahydro-5H-cyclopenta[4,5]furo[2,3-c]pyridine-6-carboxamide] | > 1000 |

Same assay, conditions: Homo sapiens; MDA-MB-231 cells, 72 hours at 37° C., CellTiter-Glo; read-out: MDA-MB-231 cell proliferation assay (IC50)

| SMILES | IC50 [nM] |
| --- | --- |
| N#Cc1ccc([C@@]23Oc4cc(Cl)cnc4[C@]2(O)[C@@H](CO)C[C@H]3c2ccccc2)cc1 (racemic) [167F, Rac-4-((5aR,6S,8R,8aR)-3-chloro-8a-hydroxy-8-(hydroxymethyl)-6-phenyl-6,7,8,8a-tetrahydro-5aH-cyclopenta[4,5]furo[3,2-b]pyridin-5a-yl)benzonitrile] | 100 to 1000 |
| COc1cncc2c1[C@]1(O)[C@@H](CN(C)C)[C@H](CO)[C@@H](c3ccccc3)[C@]1(c1ccc(Br)cc1)O2 (racemic) [205F, Rac-(4bR,5R,6R,7S,7aR)-7a-(4-bromophenyl)-5-((dimethylamino)methyl)-6-(hydroxymethyl)-4-methoxy-7-phenyl-5,6,7,7a-tetrahydro-4bH-cyclopenta[4,5]furo[2,3-c]pyridin-4b-ol] | < 100 |
| COc1nc(Cl)cc2c1[C@]1(O)[C@H](O)[C@H](CN3CC(F)C3)[C@@H](c3ccccc3)[C@]1(c1ccc(C#N)cc1)O2 (racemic) [211Fb, Rac-4-((5aR,6S,7S,8R,8aS)-3-chloro-7-((3-fluoroazetidin-1-yl)methyl)-8,8a-dihydroxy-1-methoxy-6-phenyl-6,7,8,8a-tetrahydro-5aH-cyclopenta[4,5]furo[3,2-c]pyridin-5a-yl)benzonitrile] | < 100 |
| COc1cncc2c1[C@]1(O)[C@H](O)[C@H](S(C)(=O)=O)[C@@H](c3ccccc3)[C@]1(c1ccc(Br)cc1)O2 (racemic) [101F, rac-(4bS,5S,6R,7S,7aR)-7a-(4-bromophenyl)-4-methoxy-6-(methylsulfonyl)-7-phenyl-5,6,7,7a-tetrahydro-4bH-cyclopenta[4,5]furo[2,3-c]pyridine-4b,5-diol] | 100 to 1000 |
| CC#CC1(O)C(C(=O)N(C)C)[C@@H](c2ccccc2)[C@]2(c3ccc(Br)cc3)Oc3cc(Cl)cnc3[C@]12O (mixture of isomers) [191F, Rac-(5aR,6S,8aS)-5a-(4-bromophenyl)-3-chloro-8,8a-dihydroxy-N,N-dimethyl-6-phenyl-8-(prop-1-yn-1-yl)-5a,7,8,8a-tetrahydro-6H-cyclopenta[4,5]furo[3,2-b]pyridine-7-carboxamide] | 100 to 1000 |
| COc1nc(C#N)cc2c1[C@]1(O)[C@@H](CN3CCOCC3)[C@H](CO)[C@@H](c3ccccc3)[C@]1(c1ccc(C#N)cc1)O2 (racemic) [200F, Rac-(5aR,6S,7R,8R,8aR)-5a-(4-cyanophenyl)-8a-hydroxy-7-(hydroxymethyl)-1-methoxy-8-(morpholinomethyl)-6-phenyl-5a,7,8,8a-tetrahydro-6H-cyclopenta[4,5]furo[3,2-c]pyridine-3-carbonitrile] | < 100 |
| COc1cncc2c1[C@]1(O)[C@H](O)[C@H](CN3CCOCC3)[C@@H](c3ccccc3)[C@]1(c1ccc(C(F)(F)F)cc1)O2 (single isomer, unassigned) [282F] | 100 to 1000 |
| N#Cc1ccc([C@@]23Oc4cc(Cl)cnc4[C@]2(O)[C@@H]2OC[C@@H]2[C@H]3c2ccccc2)cc1 (racemic) [61F, rac-4-((2aS,3S,3aR,8bS,8cR)-6-chloro-8b-hydroxy-3-phenyl-2a,3,8b,8c-tetrahydrooxeto[3″,2″:4′,5′]cyclopenta[1′,2′:4,5]furo[3,2-b]pyridin-3a(2H)-yl)benzonitrile] | > 1000 |
| COc1cncc2c1[C@]1(O)[C@H](O)[C@H](CN(C)C3COC3)[C@@H](c3ccccc3)[C@]1(c1ccc(C#N)cc1)O2 (racemic) [238F, Rac-4-((4bS,5R,6S,7S,7aR)-4b,5-dihydroxy-4-methoxy-6-((methyl(oxetan-3-yl)amino)methyl)-7-phenyl-4b,5,6,7-tetrahydro-7aH-cyclopenta[4,5]furo[2,3-c]pyridin-7a-yl)benzonitrile] | 100 to 1000 |
| COc1cncc2c1[C@]1(O)[C@H](O)[C@H](S(=O)(=O)c3ccccc3)[C@@H](c3ccccc3)[C@]1(c1ccc(C#N)cc1)O2 (racemic) [118F, Rac-4-((4bS,5S,6R,7S,7aR)-4b,5-dihydroxy-4-methoxy-7-phenyl-6-(phenylsulfonyl)-4b,5,6,7-tetrahydro-7aH-cyclopenta[4,5]furo[2,3-c]pyridin-7a-yl)benzonitrile] | 100 to 1000 |
| O[C@@]12C=C[C@@H](c3ccccc3)[C@]1(c1ccc(Br)cc1)Oc1cc(Cl)cnc12 (racemic) [133F, Rac-(5aR,6S,8aR)-5a-(4-bromophenyl)-3-chloro-6-phenyl-5a,6-dihydro-8aH-cyclopenta[4,5]furo[3,2-b]pyridin-8a-ol] | > 1000 |
| COc1cncc2c1[C@]1(O)[C@H](O)[C@H](C(=O)N(C)C)[C@@H](c3ccccc3)[C@]1(c1ccc(Cl)cc1)O2 (racemic) [271F, rac-(4bS,5R,6R,7S,7aR)-7a-(4-chlorophenyl)-4b,5-dihydroxy-4-methoxy-N,N-dimethyl-7-phenyl-4b,6,7,7a-tetrahydro-5H-cyclopenta[4,5]furo[2,3-c]pyridine-6-carboxamide] | 100 to 1000 |
| COc1cncc2c1[C@]1(O)[C@H](O)[C@H](C(=O)N(C)C3CC3)[C@@H](c3ccccc3)[C@]1(c1ccc(Br)cc1)O2 (racemic) [245F, Rac-(4bS,5R,6R,7S,7aR)-7a-(4-bromophenyl)-N-cyclopropyl-4b,5-dihydroxy-4-methoxy-N-methyl-7-phenyl-4b,6,7,7a-tetrahydro-5H-cyclopenta[4,5]furo[2,3-c]pyridine-6-carboxamide] | 100 to 1000 |
| COc1cncc2c1[C@]1(O)[C@@H](CN)[C@H](CO)[C@@H](c3ccccc3)[C@]1(c1ccc(Br)cc1)O2 (racemic) [170F, Rac-(4bR,5R,6R,7S,7aR)-5-(aminomethyl)-7a-(4-bromophenyl)-6-(hydroxymethyl)-4-methoxy-7-phenyl-5,6,7,7a-tetrahydro-4bH-cyclopenta[4,5]furo[2,3-c]pyridin-4b-ol] | < 100 |
| COc1nc(C#N)cc2c1[C@]1(O)[C@H](O)[C@H](CN(C)C)[C@@H](c3ccccc3)[C@]1(c1ccc(C(F)F)cc1)O2 (racemic) [146F, Rac-(5aR,6S,7S,8R,8aS)-5a-(4-(difluoromethyl)phenyl)-7-((dimethylamino)methyl)-8,8a-dihydroxy-1-methoxy-6-phenyl-5a,7,8,8a-tetrahydro-6H-cyclopenta[4,5]furo[3,2-c]pyridine-3-carbonitrile] | < 100 |
| CNC[C@H]1[C@@H](O)[C@@]2(O)c3c(cc(Cl)nc3OC)O[C@@]2(c2ccc(C#N)cc2)[C@@H]1c1ccccc1 (racemic) [224F, Rac-4-((5aR,6S,7S,8R,8aS)-3-chloro-8,8a-dihydroxy-1-methoxy-7-((methylamino)methyl)-6-phenyl-6,7,8,8a-tetrahydro-5aH-cyclopenta[4,5]furo[3,2-c]pyridin-5a-yl)benzonitrile] | < 100 |
| COc1nccc2c1[C@]1(O)[C@H](O)[C@H](CN(C)C)[C@@H](c3ccccc3)[C@]1(c1ccc(C#N)cc1)O2 (racemic) [141F, Rac-4-((5aR,6S,7S,8R,8aS)-7-((dimethylamino)methyl)-8,8a-dihydroxy-1-methoxy-6-phenyl-6,7,8,8a-tetrahydro-5aH-cyclopenta[4,5]furo[3,2-c]pyridin-5a-yl)benzonitrile] | 100 to 1000 |
| CN(C)C(=O)[C@H]1[C@@H](O)[C@@]2(O)c3nn(C)c(C#N)c3O[C@@]2(c2ccc(C#N)cc2)[C@@H]1c1ccccc1 (racemic) [82F, Rac-(4aR,5S,6R,7R,7aS)-3-cyano-4a-(4-cyanophenyl)-7,7a-dihydroxy-N,N,2-trimethyl-5-phenyl-2,4a,5,6,7,7a-hexahydrocyclopenta[4,5]furo[3,2-c]pyrazole-6-carboxamide] | > 1000 |
| COc1cncc2c1[C@]1(O)[C@H](O)[C@H](CNCCO)[C@@H](c3ccccc3)[C@]1(c1ccc(C#N)cc1)O2 (racemic) [79F, Rac-4-((4bS,5R,6S,7S,7aR)-4b,5-dihydroxy-6-(((2-hydroxyethyl)amino)methyl)-4-methoxy-7-phenyl-5,6,7,7a-tetrahydro-4bH-cyclopenta[4,5]furo[2,3-c]pyridin-7a-yl)benzonitrile] | > 1000 |
| COc1ccc(Cn2cc3c(n2)[C@]2(O)[C@H](O)[C@H](C(=O)N(C)C)[C@@H](c4ccccc4)[C@]2(c2ccc(C#N)cc2)O3)cc1 (racemic) [99F, Rac-(4aR,5S,6R,7R,7aS)-4a-(4-cyanophenyl)-7,7a-dihydroxy-2-(4-methoxybenzyl)-N,N-dimethyl-5-phenyl-2,4a,5,6,7,7a-hexahydrocyclopenta[4,5]furo[3,2-c]pyrazole-6-carboxamide] | > 1000 |
| COc1ccc([C@@]23Oc4cc(C#N)cnc4[C@]2(O)[C@H](O)[C@H](C(=O)N(C)C)[C@H]3c2ccccc2)cc1 (single isomer, unassigned) [4F] | 100 to 1000 |
| O=C1N[C@H]2[C@@H](O1)[C@@]1(O)c3ncc(Cl)cc3O[C@@]1(c1ccc(Br)cc1)[C@@H]2c1ccccc1 (racemic) [53F, Rac-(3aR,3bS,8aR,9R,9aR)-8a-(4-bromophenyl)-6-chloro-3b-hydroxy-9-phenyl-1,3a,3b,8a,9,9a-hexahydro-2H-oxazolo[4″,5″:4′,5′]cyclopenta[1′,2′:4,5]furo[3,2-b]pyridin-2-one] | < 100 |
